Test systems include A549 NSCLC; EKVX NSCLC; HCC-2998 colon; M14 melanoma; MALME-3M melanoma; NCI-H460 lung; OVCAR-8 ovarian; SK-OV-3 ovarian; SNB-19 CNS; SNB-75 CNS.
Experiment in all cases: NCI anticancer screen, dose series, 48 h

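Briefly, cells in 96-well plates were exposed to five compound concentrations for 48 h, and endpoints were estimated by linear interpolation. GI50: concentration for 50% inhibition of growth. TGI marks complete inhibition of growth.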

As to `COc1ccc(-c2nn3c(-c4cc(F)c(Cl)cc4Cl)nnc3s2)cc1`, the GI50 with A549 NSCLC was 39.1 µM; in the test with EKVX NSCLC it was 34.1 µM; with HCC-2998 colon, 20.7 µM; in the test on M14 melanoma, 25.6 µM; in the test on MALME-3M melanoma it was 26.8 µM; in the test with NCI-H460 lung, 22.4 µM. The GI50 with OVCAR-8 ovarian is 22 µM; with SK-OV-3 ovarian, 21.4 µM; with SNB-19 CNS, 39.4 µM; with SNB-75 CNS, 17.2 µM. Also, the TGI in the test on A549 NSCLC was over 100 µM; in the test on EKVX NSCLC, over 100 µM; with HCC-2998 colon, 48.7 µM; in the test on M14 melanoma it was 95.9 µM; in the test on MALME-3M melanoma, over 100 µM; with NCI-H460 lung, 86.5 µM. In addition, the TGI in the test on OVCAR-8 ovarian was 62.1 µM; in the test on SK-OV-3 ovarian, over 100 µM; in the test with SNB-19 CNS, over 100 µM; in the test on SNB-75 CNS, 51.5 µM.
`N#C/C(=C\c1ccc(O)c(O)c1)C(N)=S`: the TGI in the test on A549 NSCLC, with EKVX NSCLC, in the test with HCC-2998 colon, with M14 melanoma, in the test with MALME-3M melanoma and with NCI-H460 lung was over 100 µM in each case. Also, the TGI in the test with OVCAR-8 ovarian, with SK-OV-3 ovarian, with SNB-19 CNS and in the test on SNB-75 CNS was over 100 µM in each case.
Turning to `Cc1ccc(N=Nc2c(O)c(C(=O)O)cc3ccccc23)cc1C`, the TGI with A549 NSCLC, in the test with EKVX NSCLC, in the test with HCC-2998 colon, in the test on M14 melanoma, in the test with MALME-3M melanoma and in the test with NCI-H460 lung was over 100 µM throughout. The TGI in the test on OVCAR-8 ovarian, in the test on SK-OV-3 ovarian, in the test on SNB-19 CNS and in the test on SNB-75 CNS was over 100 µM throughout.
In the case of `COc1ccc2nc(-c3cccs3)cc(C(O)CN3CCSCC3)c2c1` (configuration not stated), the TGI in the test on A549 NSCLC is over 100 µM; in the test with EKVX NSCLC it was 97.1 µM; in the test on HCC-2998 colon it was 58.9 µM; with M14 melanoma it was 40.6 µM; in the test on MALME-3M melanoma, 35 µM; with NCI-H460 lung, 45.1 µM. The TGI was 57.8 µM in the test on OVCAR-8 ovarian, over 100 µM in the test with SK-OV-3 ovarian, over 100 µM in the test on SNB-19 CNS and 78.7 µM in the test on SNB-75 CNS.
Regarding `C#CCOCn1cnc2c(Cl)ncnc21`, the TGI in the test on A549 NSCLC, with EKVX NSCLC, in the test on HCC-2998 colon, in the test on M14 melanoma, in the test with MALME-3M melanoma and in the test on NCI-H460 lung was over 100 µM each time. Further, the TGI in the test with OVCAR-8 ovarian, in the test on SK-OV-3 ovarian, in the test on SNB-19 CNS and in the test on SNB-75 CNS was over 100 µM each time.
Regarding `CCc1nccc2c1nc(-c1nonc1N)n2CC`, the GI50 in the test on A549 NSCLC, in the test with EKVX NSCLC, in the test on HCC-2998 colon, in the test with M14 melanoma, in the test on MALME-3M melanoma and in the test on NCI-H460 lung was over 25 µM in each case. The GI50 was over 25 µM in the test on OVCAR-8 ovarian, over 25 µM with SK-OV-3 ovarian, over 25 µM with SNB-19 CNS and over 23.4 µM in the test on SNB-75 CNS. Further, the TGI in the test on A549 NSCLC, with EKVX NSCLC, in the test on HCC-2998 colon, in the test with M14 melanoma, in the test with MALME-3M melanoma and with NCI-H460 lung was over 25 µM in each case. Further, the TGI in the test on OVCAR-8 ovarian, in the test with SK-OV-3 ovarian, with SNB-19 CNS and in the test with SNB-75 CNS was over 25 µM each time.
Take `CCCCCCCCCCCC(=O)OCC1OC(n2cc(F)c(=O)[nH]c2=O)C(NC(=O)OCc2ccccc2)C(OC(=O)CCCCCCCCCCC)C1O` (configuration not stated): the TGI in the test with A549 NSCLC, in the test with EKVX NSCLC, in the test with HCC-2998 colon, in the test on M14 melanoma, in the test on MALME-3M melanoma and in the test on NCI-H460 lung was over 100 µM in each case. For the same compound, the TGI with OVCAR-8 ovarian, in the test with SK-OV-3 ovarian, in the test on SNB-19 CNS and in the test on SNB-75 CNS was over 100 µM in each case.
Consider `CCOC(=O)c1cc(NS(=O)(=O)c2ccccc2)cc(C(=O)OCC)c1`, for which the GI50 with A549 NSCLC, with EKVX NSCLC, in the test on HCC-2998 colon, in the test on MALME-3M melanoma, in the test with NCI-H460 lung and in the test on SK-OV-3 ovarian was over 100 µM in each case. Besides, the GI50 with SNB-19 CNS and in the test on SNB-75 CNS was over 100 µM in each case. Besides, the TGI in the test on A549 NSCLC, in the test on EKVX NSCLC, in the test on HCC-2998 colon, in the test with MALME-3M melanoma, in the test with NCI-H460 lung and with SK-OV-3 ovarian was over 100 µM throughout. For the same compound, the TGI in the test on SNB-19 CNS and in the test on SNB-75 CNS was over 100 µM throughout.
With `O=C(O)/C=C\C(=O)N1C/C(=C\c2ccccc2Cl)C(=O)/C(=C/c2ccccc2Cl)C1`, the GI50 with A549 NSCLC is 3.01 µM; with EKVX NSCLC it was 5.24 µM; in the test with HCC-2998 colon, 2.06 µM; with M14 melanoma, 3.1 µM; in the test with MALME-3M melanoma, 3.96 µM; in the test with OVCAR-8 ovarian it was 3.88 µM. Moreover, the GI50 is 4.74 µM with SK-OV-3 ovarian, 1.98 µM with SNB-19 CNS and 3.8 µM with SNB-75 CNS. For the same compound, the TGI in the test on A549 NSCLC was 13 µM; with EKVX NSCLC, 18.3 µM; with HCC-2998 colon, 3.87 µM; in the test with M14 melanoma, 10.6 µM; in the test on MALME-3M melanoma, 18.4 µM; with OVCAR-8 ovarian it was 17 µM. Besides, the TGI with SK-OV-3 ovarian was found to be 15.2 µM; in the test on SNB-19 CNS it was 5.34 µM; in the test with SNB-75 CNS, 14 µM.
Consider `COc1ccc2sc3c(NCCCN(C)C)nc4ccccc4c3c(=O)c2c1`, for which the GI50 was 1.75 µM with A549 NSCLC; 1.51 µM in the test with EKVX NSCLC; 1.7 µM in the test on HCC-2998 colon; 1.78 µM in the test with M14 melanoma; 1.62 µM in the test on MALME-3M melanoma; 1.54 µM in the test with NCI-H460 lung. Moreover, the GI50 with OVCAR-8 ovarian was 1.7 µM; in the test with SNB-19 CNS, 1.64 µM; in the test with SNB-75 CNS it was 1.42 µM. The TGI is 3.74 µM in the test with A549 NSCLC; 2.93 µM in the test on EKVX NSCLC; 3.26 µM in the test on HCC-2998 colon; 3.33 µM with M14 melanoma; 3.18 µM with MALME-3M melanoma; 3.03 µM with NCI-H460 lung. For the same compound, the TGI is 3.62 µM in the test with OVCAR-8 ovarian, 3.06 µM in the test on SNB-19 CNS and 2.8 µM in the test with SNB-75 CNS.

For the origin of these results see PubChem BioAssay (NCI).
